Measurements taken from patent US9796741B2 (Achillion Pharmaceuticals, Inc., priority 2014, dated 2017).

Biological target: Human factor D (Homo sapiens (Human), UniProt P00746)
Assay: Human Factor D Assay
Format: biochemical
Details: human factor D 80 nM, substrate Z-L-Lys-SBzl, DTNB
Description: Human factor D (purified from human serum, Complement Technology, Inc.) at 80 nM final concentration is incubated with test compound at various concentrations for 5 minutes at room temperature in 50 mM Tris, 1M NaCl, pH 7.5. A synthetic substrate Z-L-Lys-SBzl and DTNB (Ellman's reagent) are added to final concentrations of 100 μM each. The increase in color is recorded at OD405 nm in a microplate in kinetic mode over 30 minutes with 30 second time points in a spectrofluorimeter. IC50 values are calculated by non-linear regression from the percentage of inhibition of complement factor D activity as a function of test compound concentration.

Sequence of Human factor D (P00746 26-253): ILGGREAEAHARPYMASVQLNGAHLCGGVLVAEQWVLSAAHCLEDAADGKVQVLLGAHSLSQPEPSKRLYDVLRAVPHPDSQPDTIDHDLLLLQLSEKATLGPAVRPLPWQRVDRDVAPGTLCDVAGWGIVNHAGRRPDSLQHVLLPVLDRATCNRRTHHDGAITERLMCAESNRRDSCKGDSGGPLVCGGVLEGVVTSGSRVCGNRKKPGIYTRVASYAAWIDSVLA

Row | SMILES | IC50 [µM]
1 | NC(=O)c1nn(CC(=O)N2C[C@H](F)C[C@H]2C(=O)NCc2cc(F)cc(Cl)c2)c2ccc(-c3ccnnc3)cc12 [Compound 62, 1-(2-((2S,4R)-2-(3-chloro-5-fluorobenzylcarbamoyl)-4-fluoropyrrolidin-1-yl)-2-oxoethyl)-5-(pyridazin-4-yl)-1H-indazole-3-carboxamide] | < 1
2 | CC(=O)c1cn(CC(=O)N2C[C@H](F)C[C@H]2C(=O)Nc2ccccc2N2CCOC2=O)c2ccc(-c3ccnnc3)cc12 [Compound 64, (2S,4R)-1-(2-(3-acetyl-5-(pyridazin-4-yl)-1H-indol-1-yl)acetyl)-4-fluoro-N-(2-(2-oxooxazolidin-3-yl)phenyl)pyrrolidine-2-carboxamide] | > 10
3 | NC(=O)c1nn(CC(=O)N2C[C@H](F)C[C@H]2C(=O)Nc2ccccc2N2CCOC2=O)c2ccc(-c3ccnnc3)cc12 [Compound 65, 1-(2-((2S,4R)-4-fluoro-2-(2-(2-oxooxazolidin-3-yl)phenylcarbamoyl)pyrrolidin-1-yl)-2-oxoethyl)-5-(pyridazin-4-yl)-1H-indazole-3-carboxamide] | > 10
4 | CC(=O)c1cn(CC(=O)N2C[C@H](F)C[C@H]2C(=O)Nc2cncc(Cl)c2)c2ccc(-c3ccnnc3)cc12 [Compound 66, (2S,4R)-1-(2-(3-acetyl-5-(pyridazin-4-yl)-1H-indol-1-yl)acetyl)-N-(5-chloropyridin-3-yl)-4-fluoropyrrolidine-2-carboxamide] | < 1
5 | CC(=O)c1cn(CC(=O)N2C[C@H](F)C[C@H]2C(=O)Nc2cncc(Br)c2)c2ccc(-c3ccnnc3)cc12 [Compound 68, (2S,4R)-1-(2-(3-acetyl-5-(pyridazin-4-yl)-1H-indol-1-yl)acetyl)-N-(5-bromopyridin-3-yl)-4-fluoropyrrolidine-2-carboxamide] | < 1
6 | NC(=O)c1nn(CC(=O)N2C[C@H](F)C[C@H]2C(=O)Nc2nnc(-c3ccc(Cl)c(Cl)c3)s2)c2ccc(-c3ccnnc3)cc12 [Compound 69, 1-(2-((2S,4R)-2-(5-(3,4-dichlorophenyl)-1,3,4-thiadiazol-2-ylcarbamoyl)-4-fluoropyrrolidin-1-yl)-2-oxoethyl)-5-(pyridazin-4-yl)-1H-indazole-3-carboxamide] | > 10
7 | NCc1ccc(NC(=O)[C@@H]2C[C@@H](F)CN2C(=O)Cn2nc(C(N)=O)c3cc(-c4ccnnc4)ccc32)cc1 [Compound 70, 1-(2-((2S,4R)-2-(4-(aminomethyl)phenylcarbamoyl)-4-fluoropyrrolidin-1-yl)-2-oxoethyl)-5-(pyridazin-4-yl)-1H-indazole-3-carboxamide] | > 10
8 | Cc1ccnn1-c1ccccc1NC(=O)[C@@H]1C[C@@H](F)CN1C(=O)Cn1nc(C(N)=O)c2cc(-c3ccnnc3)ccc21 [Compound 71, 1-(2-((2S,4R)-4-fluoro-2-(2-(5-methyl-1H-pyrazol-1-yl)phenylcarbamoyl)pyrrolidin-1-yl)-2-oxoethyl)-5-(pyridazin-4-yl)-1H-indazole-3-carboxamide] | > 10
9 | CC(=O)c1cn(CC(=O)N2C[C@H](F)C[C@H]2C(=O)Nc2ccccc2-n2nccc2C)c2ccc(-c3ccnnc3)cc12 [Compound 72, (2S,4R)-1-(2-(3-acetyl-5-(pyridazin-4-yl)-1H-indol-1-yl)acetyl)-4-fluoro-N-(2-(5-methyl-1H-pyrazol-1-yl)phenyl)pyrrolidine-2-carboxamide] | > 10
10 | NC(=O)c1nn(CC(=O)N2C[C@H](F)C[C@H]2C(=O)Nc2cccc(OCc3ccccc3)n2)c2ccc(-c3ccnnc3)cc12 [Compound 73, 1-(2-((2S,4R)-2-(6-(benzyloxy)pyridin-2-ylcarbamoyl)-4-fluoropyrrolidin-1-yl)-2-oxoethyl)-5-(pyridazin-4-yl)-1H-indazole-3-carboxamide] | > 10
11 | CC(=O)c1cn(CC(=O)N2C[C@H](F)C[C@H]2C(=O)N[C@H]2CCCC[C@@H]2OCc2ccccc2)c2ccc(-c3ccnnc3)cc12 [Compound 74, (2S,4R)-1-(2-(3-acetyl-5-(pyridazin-4-yl)-1H-indol-1-yl)acetyl)-N-((1S,2S)-2-(benzyloxy)cyclohexyl)-4-fluoropyrrolidine-2-carboxamide] | > 10
12 | CC(=O)c1cn(CC(=O)N2C[C@H](F)C[C@H]2C(=O)Nc2ccc3c(c2)OC(C)(C)C3)c2ccc(-c3ccnnc3)cc12 [Compound 75, (2S,4R)-1-(2-(3-acetyl-5-(pyridazin-4-yl)-1H-indol-1-yl)acetyl)-N-(2,2-dimethyl-2,3-dihydrobenzofuran-6-yl)-4-fluoropyrrolidine-2-carboxamide] | < 1
13 | CC1(C)Cc2ccc(NC(=O)[C@@H]3C[C@@H](F)CN3C(=O)Cn3nc(C(N)=O)c4cc(-c5ccnnc5)ccc43)cc2O1 [Compound 76, 1-(2-((2S,4R)-2-(2,2-dimethyl-2,3-dihydrobenzofuran-6-ylcarbamoyl)-4-fluoropyrrolidin-1-yl)-2-oxoethyl)-5-(pyridazin-4-yl)-1H-indazole-3-carboxamide] | < 1
14 | CC(=O)c1cn(CC(=O)N2C[C@H](F)C[C@H]2C(=O)N[C@H]2CCC[C@@H]2OCc2ccccc2)c2ccc(-c3ccnnc3)cc12 [Compound 77, (2S,4R)-1-(2-(3-acetyl-5-(pyridazin-4-yl)-1H-indol-1-yl)acetyl)-N-((1S,2S)-2-(benzyloxy)cyclopentyl)-4-fluoropyrrolidine-2-carboxamide] | > 10
15 | NC(=O)c1nn(CC(=O)N2C[C@H](F)C[C@H]2C(=O)N[C@H]2CCCC[C@@H]2OCc2ccccc2)c2ccc(-c3ccnnc3)cc12 [Compound 78] | > 10
16 | CNC(=O)[C@@H]1C[C@@H](F)CN1C(=O)Cn1nc(C(N)=O)c2cc(-c3ccnnc3)ccc21 [Compound 79, 1-(2-((2S,4R)-4-fluoro-2-(methylcarbamoyl)pyrrolidin-1-yl)-2-oxoethyl)-5-(pyridazin-4-yl)-1H-indazole-3-carboxamide] | > 10
17 | COc1ncc(-c2ccc3c(c2)c(C(C)=O)cn3CC(=O)N2[C@@H]3C[C@@H]3C[C@H]2C(=O)Nc2cccc(-c3ccccc3Cl)c2F)cn1 [Compound 80, (1R,3S,5R)-2-(2-(3-acetyl-5-(2-methoxypyrimidin-5-yl)-1H-indol-1-yl)acetyl)-N-(2′-chloro-2-fluorobiphenyl-3-yl)-2-azabicyclo[3.1.0] hexane-3-carboxamide] | < 1
18 | COc1ncc(-c2ccc3c(c2)c(C(C)=O)cn3CC(=O)N2[C@@H]3C[C@@H]3C[C@H]2C(=O)Nc2cccc(Br)n2)cn1 [Compound 81, (1R,3S,5R)-2-(2-(3-acetyl-5-(2-methoxypyrimidin-5-yl)-1H-indol-1-yl)acetyl)-N-(6-bromopyridin-2-yl)-2-azabicyclo[3.1.0] hexane-3-carboxamide] | < 1
19 | CC(=O)c1cn(CC(=O)N2C[C@H](F)C[C@H]2C(=O)Nc2cccc(Br)n2)c2ccc(-c3cnc(C#N)nc3)cc12 [Compound 82, (2S,4R)-1-(2-(3-acetyl-5-(2-cyanopyrimidin-5-yl)-1H-indol-1-yl)acetyl)-N-(6-bromopyridin-2-yl)-4-fluoropyrrolidine-2-carboxamide] | < 1
20 | CC(=O)c1cn(CC(=O)N2C[C@H](F)C[C@H]2C(=O)Nc2cccc(Br)n2)c2ccc(-c3cnc(F)nc3)cc12 [Compound 83, (2S,4R)-1-(2-(3-acetyl-5-(2-fluoropyrimidin-5-yl)-1H-indol-1-yl)acetyl)-N-(6-bromopyridin-2-yl)-4-fluoropyrrolidine-2-carboxamide] | < 1
